# Entries after “also recorded” stand apart in the source; their conditions may differ. Ends that are not written are not given here.
# Columns and labels:
# Wistar female rats [1] = assay: Open-field test (OFT) in rats under shifted photoperiods; settings: OFT first session; for effect on the Distance: 100 mg/kg
# Experimental: Activity was tested in open boxes (open-fields: 100 cm wide, 100 cm long, 50 cm high) made of PVC. Animals' activity was recorded by an electronic videotracking detection system (Viewpoint, France) allowing to detect the distance travelled and the time spent in different parts of the open-field.
# Light intensity was 7-10 Lux at the center of the open-fields.
# Animals were individually placed for a 10-min session in the center of one quadrant of the open-field.
# Parameters analyzed were: • 1) One parameter taken as an index of locomotor-exploratory behavior: • The distance travelled in the open-field. • 2) Two parameters taken as indices of anxiety behavior: • a) % Dist Cent=the percentage of distance travelled in the central 60×60 cm area of the open-field. • b) % Time cent=the percentage of time spent in the central 60×60 cm area of the open-field.
# (§1) A difference was considered: • 1) Statistically significant: p≦0.05. • 2) Close-to-significant difference: 0.05<p≦0.10. • 3) Not significant: p>0.10.
# [2] = Body weight / growth rate in rats under shifted photoperiods; settings: for Body weight in percent of initial body weight (d−4): short light (SL) rats, mean
# Experimental: Rats were weighed three times a week in order to examine the effect of L/D changes and the effects of treatments on the body weight.
# Animals' body weight was recorded three days per week. The body weight on day d-4 was considered as the initial body weight.
# Initial body weight (BW) between recorded on day d-4, before the initiation of L/D change analyzed by 1-factor ANOVA and Student's t-test.
# Therefore, the following analyses were performed on the BW expressed in percentage of the initial BW. • 2) Effect of L/D condition:
# The BW expressed in percentage of the initial BW was compared between by ANOVA for repeated measures (from day dl to day d54): • a) On C-Veh, LL-Veh and SL-Veh groups: overall effect. • b) On C-Veh and LL-Veh groups: effect of LL. • c) On C-Veh and SL-Veh groups: effect of SL. • d) On LL-Veh and SL-Veh groups: difference LL vs. SL. • 3) Effect of vehicle:
# [3] = system: rat ventral tegmental area dopamine neurons; settings: cited from earlier work
# recombinant human OxR1 = molecular target: T1, recombinant human OxR1 (Homo sapiens, UniProt O43613); settings: cited from earlier work
# T1 sequence (O43613 1-425): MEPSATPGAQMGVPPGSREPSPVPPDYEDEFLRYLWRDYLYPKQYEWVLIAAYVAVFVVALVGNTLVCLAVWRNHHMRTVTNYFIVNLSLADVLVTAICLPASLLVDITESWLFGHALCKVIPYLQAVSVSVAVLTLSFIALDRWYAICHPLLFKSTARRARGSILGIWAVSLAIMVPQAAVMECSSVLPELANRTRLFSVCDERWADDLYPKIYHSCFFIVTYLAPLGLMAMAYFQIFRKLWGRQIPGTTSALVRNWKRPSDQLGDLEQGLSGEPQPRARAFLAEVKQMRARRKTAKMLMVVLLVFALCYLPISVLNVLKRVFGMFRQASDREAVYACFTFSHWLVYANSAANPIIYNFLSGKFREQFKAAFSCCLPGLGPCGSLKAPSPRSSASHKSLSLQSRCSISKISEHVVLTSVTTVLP
# OxR2 [4] = molecular target: T2, OxR2 (Homo sapiens, UniProt O43614); settings: read-out: Human OxR2 FLIPR; cited from earlier work
# T2 sequence (O43614 1-444): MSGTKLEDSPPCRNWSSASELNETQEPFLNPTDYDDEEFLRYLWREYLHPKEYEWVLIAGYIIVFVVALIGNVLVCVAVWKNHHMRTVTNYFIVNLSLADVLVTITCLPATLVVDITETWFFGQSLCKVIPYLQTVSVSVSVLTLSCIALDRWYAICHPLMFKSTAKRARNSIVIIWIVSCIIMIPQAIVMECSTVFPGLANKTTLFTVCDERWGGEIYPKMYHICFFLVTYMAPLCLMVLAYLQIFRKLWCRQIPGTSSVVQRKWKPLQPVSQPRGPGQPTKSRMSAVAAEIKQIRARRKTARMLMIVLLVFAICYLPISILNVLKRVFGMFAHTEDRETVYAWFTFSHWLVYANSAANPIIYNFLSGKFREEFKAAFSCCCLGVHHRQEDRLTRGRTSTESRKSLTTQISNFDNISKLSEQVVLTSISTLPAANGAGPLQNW
# rat OxR1 = molecular target: T3, rat OxR1 (Rattus norvegicus, UniProt P56718); settings: rat OxR1 cell cultures, t=30 min to t=4 hours; cited from earlier work
# T3 sequence (P56718 1-416): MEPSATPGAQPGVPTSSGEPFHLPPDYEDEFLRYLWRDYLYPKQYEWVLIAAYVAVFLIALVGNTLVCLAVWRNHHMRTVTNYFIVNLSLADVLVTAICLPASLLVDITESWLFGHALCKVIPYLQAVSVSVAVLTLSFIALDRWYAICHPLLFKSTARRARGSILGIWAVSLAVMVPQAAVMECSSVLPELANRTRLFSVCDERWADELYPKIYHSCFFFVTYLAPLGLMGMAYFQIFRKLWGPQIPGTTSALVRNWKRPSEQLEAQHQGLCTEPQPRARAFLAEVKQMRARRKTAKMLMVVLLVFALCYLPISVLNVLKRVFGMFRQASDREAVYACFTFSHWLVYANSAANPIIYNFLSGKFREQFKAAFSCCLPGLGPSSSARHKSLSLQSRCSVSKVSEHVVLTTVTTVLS
# Wistar female rats [5] = assay: Elevated-plus maze (EPM) test in rats under shifted photoperiods
# Text: Animals were subjected to the elevated-plus maze (EPM) test only once during the period of the study: at the 43th, 44th or 45th days of treatment (see Table 2).
# The apparatus consisted of a plus-shaped maze, elevated 50 cm from the floor, with two opposite open arms, 50×10 cm, crossed at right angles by two arms of the same dimensions, but enclosed by 40-cm-high black opaque walls with an open roof. In addition a 1-cm-high edge made of Plexiglas surrounded the open arms to avoid falls.
# Light intensity was 10 Lux at the level of open arms.
# The experiment was recorded with a camcorder, placed 1.5 m above the maze and connected to a screen, allowing the experimenter to watch the test online.
# Animals were individually placed for a 5-min session in the center of the plus-maze. The number of arm entries and the time spent in arms were recorded. An arm entry is defined as all four paws into the arm.
# Other parameters were recorded: the time spent in open arms, the number of open arm entries, the time spent in enclosed arms, the number of enclosed arm entries and the time spent in the center of the maze.
# 1) Enclosed arm entries: entries into the protected arms of the EPM
# as §1
# OxR2 [6] = molecular target: T2, OxR2; settings: over 4 hours; cited from earlier work
# OxR2 [7] = molecular target: T2, OxR2; settings: cited from earlier work
# OxR2 [8] = molecular target: T2, OxR2; settings: cited from earlier work; remark: listed apart in the source
# Wistar female rats [9] = assay: Forced swimming test (FST) in rats under shifted photoperiods
# Experimental: Animals of CL and LL groups received the vehicles in the same conditions.
# The same animals were tested by the same experimenter on the two FST sessions. The same proportion of animals of each group was tested by each experimenter.
# The apparatus used for the experiment consisted of glass cylinders (64 cm high, 25 cm diameter) filled with 30 cm 25° C. water. The experiment was recorded with a camcorder, placed in front of the glass cylinder and connected to a screen, allowing the experimenter to watch the test online.
# Light intensity was 15-20 Lux at the level of glass cylinders.
# The behavior of the rat was measured on the second trial.
# Behavior was classified as one of three behaviors: • 1) Immobility, defined as floating in the water without struggling and using only small movements to keep the head above water. • 2) Swimming, defined as moving limbs in an active manner, more than required to keep the head above water and causing movement among quadrants of the cylinder. • 3) Climbing, defined as making active movements with forepaws moving in and out of the water, usually directed against the side of the cylinder. Parameters analyzed were:
# 1) Imo=the immobility time.
# 2) Swm=the swimming time.
# 3) Clb=the climbing time.
# A depressive-like profile is indicated by an increase of the immobility time and a decrease of either the swimming time or the climbing time. Conversely, an antidepressant-like effect is indicated by a decrease of the immobility time and an increase of either the swimming time or the climbing time.
# as §1
# Wistar female rats [10] = assay: Marble burying test (MBT) in rats under shifted photoperiods
# Experimental: The marble burying test can score the ability of rats to remove slight stressors, the marbles, from their environments.
# Animals of LL-DMSO, LL-Wat, SL-DMSO, SL-Wat and SL-Almo groups were subjected to the marble burying test only once during the period of the study: at the 51st or 52nd days of treatment (see Table 2).
# The experiment was conducted in twelve Plexiglas transparent open-boxes (42 cm L, 42 cm W, 40 cm H) filled with 5 cm sawdust. Twenty-five clean glass marbles (15 mm diameter) were evenly spaced 5 cm apart on sawdust. The number of marbles buried was counted at the end of the session.
# Light intensity was 30 Lux at the center of the open-boxes.
# Animals were individually placed for a 5-min session in the experimental apparatus.
# The number of marbles was counted at the end of the session: • 1) Number of marbles not buried. • 2) Number of marbles ⅓ buried. • 3) Number of marbles ⅔ buried. • 4) Number of marbles totally buried.
# Parameters analyzed were: • 1) Unburied=the number of marbles not buried. • 2) ≧⅔ buried=number of marbles ⅔ buried+number of marbles totally buried • 3) Tot buried=number of marbles totally buried.
# mice = settings: no photoperiod manipulation; cited from earlier work
# [11] = SL-Almo vs SL-Wat, 100 mg/kg PO
# [12] = Short Light rats, Almorexant 100 mg/kg PO daily, group mean
# [13] = EPM, SL-Almo vs SL-Wat, 100 mg/kg PO, 100 mg/kg
# [14] = EPM, short light (SL) rats, group mean, water vehicle comparison groups
# [15] = FST second session, SL-Almo vs SL-Wat, 100 mg/kg PO, 100 mg/kg
# [16] = FST second session, short light (SL) rats, group mean
# [17] = MBT reanalysis, SL rats, almorexant
# [18] = MBT, SL-Almo vs SL-Wat, 100 mg/kg PO
# [19] = MBT, short light (SL) rats, group mean
compound,measurement,setting,value
CNC(=O)[C@@H](c1ccccc1)N1CCc2cc(OC)c(OC)cc2[C@@H]1CCc1ccc(C(F)(F)F)cc1.Cl [Almorexant HCl],effect on the % Dist Center,Wistar female rats [1]; [11],Did not significantly modify
same,effect on the % Time Center,Wistar female rats [1]; [11],Did not significantly modify
same,effect on the Distance,"Wistar female rats [1]; SL-Almo vs SL-Wat, 100 mg/kg PO, listed as Almorexant",Tended to reduce the decrease in mobility caused by the SL
same,effect on the Distance,"Wistar female rats [1]; SL-Almo vs SL-Wat, 100 mg/kg PO, listed as almorexant",Did not significantly modify
same,% Dist Cent,Wistar female rats [1]; [12],9.9%
same,% Time Cent,Wistar female rats [1]; [12],6.7%
same,Distance travelled,Wistar female rats [1]; [12],8786.5 cm
same,anxiety-like behavior,Wistar female rats [1]; almorexant 100 mg/kg PO,did not induce effect
same,motor exploratory activity,Wistar female rats [1]; almorexant 100 mg/kg PO,did not modify
same,growth rate,"[2]; SL-Almo vs SL-Veh, OG (FIG. 30)",consistently found to increase growth rate back to LL levels
same,"body weight (BW, percent of initial BW)","[2]; SL-Almo vs SL-Wat, d29 to d54, 100 mg/kg PO",increased the BW
same,Body weight in percent of initial body weight (d−4),"[2]; d29-t1, during treatment",164.4%
same,Body weight in percent of initial body weight (d−4),"[2]; d31-t3, during treatment",167.0%
same,Body weight in percent of initial body weight (d−4),"[2]; d33-t5, during treatment",168.8%
same,Body weight in percent of initial body weight (d−4),"[2]; d36-t8, during treatment",173.4%
same,Body weight in percent of initial body weight (d−4),"[2]; d38-t10, during treatment",175.5%
same,Body weight in percent of initial body weight (d−4),"[2]; d40-t12, during treatment",176.6%
same,Body weight in percent of initial body weight (d−4),"[2]; d43-t15, during treatment",179.7%
same,Body weight in percent of initial body weight (d−4),"[2]; d45-t17, during treatment",181.7%
same,Body weight in percent of initial body weight (d−4),"[2]; d47-t19, during treatment",183.5%
same,Body weight in percent of initial body weight (d−4),"[2]; d50-t22, during treatment",185.5%
same,Body weight in percent of initial body weight (d−4),"[2]; d52-t24, during treatment",187.5%
same,Body weight in percent of initial body weight (d−4),"[2]; d54-t26, during treatment",187.0%
same,block of the effect of orexin A on firing,[3]; 1 micro molar of Almorexant,completely block the effect of orexin A
same,binding and dissociation rates at hOxR1,recombinant human OxR1,fast binding and dissociation rates
same,classification of antagonism at hOxR1,recombinant human OxR1,competitive antagonist
same,IC50,OxR2 [4],15.6 nM
same,change of Ki over time,rat OxR1,remains relatively unchanged
same,"SL-increased anxiety-like behaviors (FIG. 10, enclosed arms)","Wistar female rats [5]; EPM reanalysis, OG almorexant",treated with statistical significance
same,effect on the % OAE,Wistar female rats [5]; [13],no significant effect; also recorded: Did not significantly modify
same,effect on the % TOA,Wistar female rats [5]; [13],no significant effect; also recorded: Did not significantly modify
same,effect on the AE,Wistar female rats [5]; [13],increased; also recorded: Tended to increase
same,anxiety-like behavior,"Wistar female rats [5]; EPM, almorexant 100 mg/kg PO",did not induce effect
same,motor exploratory activity,"Wistar female rats [5]; EPM, almorexant 100 mg/kg PO",increased
same,Number of arm entries (AE),Wistar female rats [5]; [14],23.8
same,Percentage of open arm entries (% OAE),Wistar female rats [5]; [14],38.1%
same,Percentage of time spent in open arms (% TOA),Wistar female rats [5]; [14],34.9%
same,change of OxR2 Ki over time,OxR2 [6],decrease over 4 hours
same,Ki,OxR2 [7],0.9 nM
same,Kd,"OxR2 [8]; [3H] Almorexant, human OxR2",0.17 nM
same,classification of antagonism at hOxR2,OxR2 [8],non-competitive antagonist
same,effect on the swimming time (Swm),"Wistar female rats [9]; FST second session, SL-Almo vs SL-Wat, 100 mg/kg PO",Did not significantly modify
same,effect on the climbing time (Clb),Wistar female rats [9]; [15],increased; also recorded: Tended to increase
same,effect on the immobility time (Imo),Wistar female rats [9]; [15],Decreased
same,antidepressant-like effect,"Wistar female rats [9]; FST second session, almorexant 100 mg/kg PO",induced an antidepressant-like effect
same,Immobility time (Imo),Wistar female rats [9]; [16],111.5 s
same,climbing time (Clb),Wistar female rats [9]; [16],68.7 s
same,percentage swimming time (Swim),Wistar female rats [9]; [16],119.8 s
same,FST 2 binned climbing time (FIG. 13),"Wistar female rats [9]; double blind reanalysis of video, SL-Almo vs SL-Veh",statistically significant anti-depressant and anti-despair effect
same,marbles greater than ⅓ buried (FIG. 20),Wistar female rats [10]; [17],treated with statistical significance
same,marbles ⅓ buried (FIG. 22),Wistar female rats [10]; [17],treated statistically significantly
same,marbles ⅓ or less buried (FIG. 21),Wistar female rats [10]; [17],treated with statistical significance
same,unburied marbles,Wistar female rats [10]; [18],Reduced the increase
same,≧⅔ buried marbles,Wistar female rats [10]; [18],Reduced the decrease
same,Number of unburied marbles,Wistar female rats [10]; [19],5.3
same,number of totally buried,Wistar female rats [10]; [19],8.9
same,number of ≧⅔ buried marbles,Wistar female rats [10]; [19],16.3
Cc1nc2ccc(NC(=O)Nc3ccnc4cccnc34)cc2o1 [SB-334867],immobility in Forced Swim Test and Tail Suspension Test,mice,decreased immobility
"orexin A: neuropeptide of 33 amino acid residues with two disulfide bonds, derived from prepro-orexin (QPLPDCCRQKTCSCRLYELLHGAGNHAAGILTL; disulfide (positions not given here); ends not checked; also: two disulfide bonds, pairing not given here; UniProt O43612 34-66, looked up)",basal firing frequency,"[3]; 0.0001-10 micro molar orexin A, nearly half of the tested neurons",175+/−17 % of control
